In paper PMC8850191, “Mechanisms of inhibition and activation of extrasynaptic αβ GABAA receptors” (Nature, 2022):
“And” between values parts separate entries of the source, which are not always exact repeats. Equal entries are not always repeated. Where two headings read alike, the source gives them in different places.

Experiments:
α1β3γ2WT [1] = target: T1, α1β3γ2WT (Homo sapiens, UniProt P14867+P18507+P28472); assay: GABA concentration used for single channel recording (~EC95); assay type: cell-based; conditions: concentration used for single channel recordings
T1 construct: expressed in transfected cells; host or cells: HEK 293 cells, transient calcium-phosphate transfection, α1:β3:γ2:GFP 1:1:3:1
T1 sequence (P18507 40-475, one chain of several): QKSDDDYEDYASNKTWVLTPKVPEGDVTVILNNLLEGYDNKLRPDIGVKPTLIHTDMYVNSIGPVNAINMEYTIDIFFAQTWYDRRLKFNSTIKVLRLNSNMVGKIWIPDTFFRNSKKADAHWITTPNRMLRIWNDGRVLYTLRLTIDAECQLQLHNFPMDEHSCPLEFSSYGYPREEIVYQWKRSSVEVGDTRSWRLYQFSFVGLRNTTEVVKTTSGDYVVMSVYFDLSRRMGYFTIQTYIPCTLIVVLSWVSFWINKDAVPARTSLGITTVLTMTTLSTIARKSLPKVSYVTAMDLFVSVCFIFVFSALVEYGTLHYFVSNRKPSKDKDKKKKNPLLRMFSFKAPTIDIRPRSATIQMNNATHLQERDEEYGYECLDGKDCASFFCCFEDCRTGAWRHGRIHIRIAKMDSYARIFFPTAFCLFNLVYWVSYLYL
Description: Single GABA-activated channel currents were recorded in outside-out patches from transfected HEK 293 cells at –70 mV holding potential. Channel currents were recorded using an Axopatch 200B and filtered at 5 kHz (4-pole Bessel filter) before digitizing at 20 kHz with a Digidata 1322A. The fixed time resolution of the system was set at 80 μs. WinEDR was used for analysing single channel data. The single-channel current was determined from compiling channel current amplitude histograms and fitting Gaussian components to define the mean current, s.d. and the total area of the component. […] Individual open and closed dwell times were measured using a 50% threshold cursor applied to the main single channel current amplitude in each patch. The subsequent detection of open and closed events formed the basis of an idealized single channel record used for compiling the dwell time distributions. Frequency distributions were constructed from the measured individual open and closed times and analysed by fitting a mixture of exponentials, defined by: y(t)=∑i=1nAi/τi×e^(−t/τi) where Ai is the area of the ith component to the distribution and τi represents the corresponding exponential time constant. […] An F-test determined the optimal number of exponential components that were required to fit the individual dwell time distributions. […]

α1β3γ2WT [2] = target: T1, α1β3γ2WT; assay: Probability of activation (PA), whole-cell, saturating GABA versus GABA + 1 mM pentobarbitone; assay type: cell-based; conditions: n = 6
Description: (§1) Whole-cell responses were recorded in patch clamp experiments from HEK 293 cells transiently transfected with human GABAA α1β3 (WT), α1GLIVIβ3BRIL (α1β3cryo-EM; see ‘Constructs’) or α1β3γ2 (WT). HEK 293 cells were grown in DMEM supplemented with 10% v/v fetal bovine serum, 100 U ml^−1 penicillin-G and 100 µg ml^−1 streptomycin (37 °C; 95% air/5% CO2), and transfected using a calcium-phosphate precipitation method with α1:β3:GFP or α1:β3:γ2:GFP cDNAs in a ratio of 1:1:1 or 1:1:3:1, respectively, 12–24 h before experimentation. Recordings were performed with cells continuously perfused with Krebs solution composed of (mM): 140 NaCl, 4.7 KCl, 1.2 MgCl2, 2.52 CaCl2, 11 Glucose and 5 HEPES (pH 7.4; ~300 mOsm). Patch pipettes (TW150F-4; WPI; 3–4 MΩ) were filled with an internal solution containing (mM): 140 KCl, 1 MgCl2, 11 EGTA, 10 HEPES,1 CaCl2, 2 K-ATP (pH 7.2; ~305 mOsm). […] Cells were voltage-clamped at −40 mV with an Axopatch 200B amplifier (Molecular Devices), currents were digitized at 50 kHz via a Digidata 1322A (Molecular Devices), filtered at 5 kHz (−36 dB), and acquired using Clampex 10.2 (Molecular Devices). Series resistance was compensated at 60–70% (lag time 10 μs).

human GABAA α1β3 (WT) [3] = target: T2, human GABAA α1β3 (WT) (Homo sapiens, UniProt P14867+P28472); assay: Whole-cell patch clamp, GABA concentration response, HEK 293 cells; assay type: cell-based; parameters: expressed in transfected cells; host or cells: HEK 293 cells, transient calcium-phosphate transfection, α1:β3:GFP 1:1:1
T2 sequence (P14867 28-456): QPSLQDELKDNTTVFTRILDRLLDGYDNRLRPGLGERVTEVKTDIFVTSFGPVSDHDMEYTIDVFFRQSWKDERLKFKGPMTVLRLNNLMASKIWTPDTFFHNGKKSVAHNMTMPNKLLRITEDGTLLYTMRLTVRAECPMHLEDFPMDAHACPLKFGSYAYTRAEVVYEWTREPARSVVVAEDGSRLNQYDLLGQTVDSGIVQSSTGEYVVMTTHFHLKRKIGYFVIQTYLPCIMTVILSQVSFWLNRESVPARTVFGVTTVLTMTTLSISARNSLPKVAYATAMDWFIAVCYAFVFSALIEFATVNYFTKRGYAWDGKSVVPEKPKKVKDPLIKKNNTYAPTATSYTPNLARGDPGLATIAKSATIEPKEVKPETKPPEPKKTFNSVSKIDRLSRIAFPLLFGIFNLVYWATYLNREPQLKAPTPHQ
T2 sequence (P28472 26-473): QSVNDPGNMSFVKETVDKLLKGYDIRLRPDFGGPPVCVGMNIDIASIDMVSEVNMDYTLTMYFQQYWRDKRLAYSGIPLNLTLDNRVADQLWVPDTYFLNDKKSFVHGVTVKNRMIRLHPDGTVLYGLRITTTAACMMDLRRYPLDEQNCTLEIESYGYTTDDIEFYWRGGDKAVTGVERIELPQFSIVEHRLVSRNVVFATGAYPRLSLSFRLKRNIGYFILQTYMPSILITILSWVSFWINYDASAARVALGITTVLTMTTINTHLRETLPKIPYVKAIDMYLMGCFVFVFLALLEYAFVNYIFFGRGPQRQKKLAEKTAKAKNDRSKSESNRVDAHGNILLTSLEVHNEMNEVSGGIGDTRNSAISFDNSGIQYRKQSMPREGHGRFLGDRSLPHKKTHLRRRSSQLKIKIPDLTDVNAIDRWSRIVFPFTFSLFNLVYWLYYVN
Description: as §1
(§2) Peak current responses and desensitization rates were obtained using Clampfit 10.2 (Molecular Devices).

human GABAA α1β3 (WT) [4] = target: T2, human GABAA α1β3 (WT); assay: Whole-cell patch clamp, Zn2+ inhibition of GABA currents, HEK 293 cells; assay type: cell-based; parameters: expressed in transfected cells; host or cells: HEK 293 cells, transient calcium-phosphate transfection, α1:β3:GFP 1:1:1
Description: as §1
(§3) For free Zn^2+ concentration experiments, the Zn^2+ chelator tricine was used to precisely control Zn^2+ concentration and eliminate background Zn^2+ contamination. Krebs solution was supplemented with 10 mM tricine and pH corrected to 7.4.
as §2

αβδ receptors = conditions: one β-subunit His replaced by Ser (δ-subunit), relative to αβ; cited from earlier work
[5] = target: α1β3 cryo-EM construct (α1β3CryoEM) (Homo sapiens, UniProt P14867+P28472, DEL344-414/G341Q/R340S/S415R/S417A/V416A/Y342P); conditions: for IC50: mean pIC50 converted
α1β3 cryo-EM construct (α1β3CryoEM), sequence (P14867 with tags, fused parts or gaps R340S/G341Q/Y342P/DEL344-414/S415R/V416A/S417A): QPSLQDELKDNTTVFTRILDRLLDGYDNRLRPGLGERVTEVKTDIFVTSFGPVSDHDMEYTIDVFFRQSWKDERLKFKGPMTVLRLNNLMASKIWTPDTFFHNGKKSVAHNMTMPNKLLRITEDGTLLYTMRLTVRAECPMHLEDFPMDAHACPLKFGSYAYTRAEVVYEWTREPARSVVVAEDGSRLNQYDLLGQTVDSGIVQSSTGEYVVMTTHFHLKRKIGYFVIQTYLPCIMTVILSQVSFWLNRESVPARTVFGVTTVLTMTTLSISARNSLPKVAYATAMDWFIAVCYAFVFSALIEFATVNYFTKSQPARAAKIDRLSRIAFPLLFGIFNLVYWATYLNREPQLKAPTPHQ
α1β3 cryo-EM construct (α1β3CryoEM), sequence (P28472 with tags, fused parts or gaps, stated change not applied): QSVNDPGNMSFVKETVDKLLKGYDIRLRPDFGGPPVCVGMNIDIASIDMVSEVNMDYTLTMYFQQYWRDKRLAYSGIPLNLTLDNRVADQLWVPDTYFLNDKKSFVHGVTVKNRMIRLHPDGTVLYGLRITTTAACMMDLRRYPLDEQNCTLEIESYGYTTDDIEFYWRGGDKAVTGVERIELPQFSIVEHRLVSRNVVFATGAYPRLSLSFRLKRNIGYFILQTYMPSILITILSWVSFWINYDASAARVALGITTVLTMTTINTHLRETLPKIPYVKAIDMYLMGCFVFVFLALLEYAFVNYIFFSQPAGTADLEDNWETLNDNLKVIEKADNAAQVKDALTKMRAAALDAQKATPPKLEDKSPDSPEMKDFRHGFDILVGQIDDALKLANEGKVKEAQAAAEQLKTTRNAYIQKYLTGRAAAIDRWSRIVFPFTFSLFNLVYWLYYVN
Description: The α1 intracellular M3–M4 loop amino acids 313–391 (RGYA…NSVS) were substituted by the SQPARAA sequence[46]. […] The mature engineered α1 construct with a 1D4 purification tag derived from bovine rhodopsin ([sequence]) that is recognized by the Rho-1D4 monoclonal antibody (University of British Columbia)[47],[48] was cloned into the pHLsec vector after the vector secretion signal[49], ending [sequence]. […] The engineered β3 construct was cloned into pHLsec after the vector secretion sequence without any tags.
as §1, §3, §2

αβγ receptors = conditions: one β-subunit His replaced by Ile (γ-subunit), relative to αβ; cited from earlier work
α1β3 = test system: α1β3; parameters: method as in earlier work; conditions: muscimol versus muscimol + propofol; ref 2020 Akk G Steinbach JH, PMID:32873746; cited from earlier work
α2-GABAAR subunit = conditions: Lys in α2 at the position of α1 Ser69; cited from earlier work
GABA-A receptors = conditions: author rebuttal, peer review file; reference not given; cited from earlier work
[6] = 66 nM free Zn2+ (tricine-controlled), wild-type, mean ± s.e.m., n = 7
[7] = 66 nM free Zn2+ (tricine-controlled), α1β3 cryo-EM construct, mean ± s.e.m., n = 7

## NCCCC(=O)O [GABA, γ-aminobutyric acid]
α1β3γ2WT [1]
  GABA ~EC95: ~100 µM
α1β3γ2WT [2]
  probability of activation (PA): > 0.9 and 0.94 ± 0.03
Human GABAA α1β3 (WT) [3]; submaximal (20%) response, used for wild-type and cryo-EM construct
  GABA EC20: 1 µM
Human GABAA α1β3 (WT) [3]; α1β3WT, concentration used for single channel recordings
  GABA ~EC95: ~30 µM

## [Zn+2] [Zn^2+]
Human GABAA α1β3 (WT) [4]; [6]
  inhibition of EC20 (1 μM) GABA response: 38 ± 2%
  inhibition of maximal (1 mM) GABA response: 36 ± 6%
Human GABAA α1β3 (WT) [4]; α1β3WT, 10 mM tricine, mean pIC50 converted, read-out: IC50 free Zn2+ inhibition
  IC50: 0.149 µM
Human GABAA α1β3 (WT) [4]; α1β3WT, 10 mM tricine, n = 8
  pIC50 free Zn2+ inhibition: 6.83 ± 0.1
αβδ receptors
  reduction of Zn2+ sensitivity: 50 fold
[5]; [7]
  inhibition of EC20 (1 μM) GABA response: 32 ± 2%
  inhibition of maximal (1 mM) GABA response: 32 ± 4%
[5]; 20 μM Zn2+, Extended Data Fig. 5a (shows WT and cryo-EM construct)
  inhibition: approximately 90%
[5]; read-out: IC50 Zn2+ inhibition, α1β3CryoEM, absence of tricine
  IC50: 0.22 µM
[5]; read-out: IC50 free Zn2+ inhibition, α1β3CryoEM, 10 mM tricine
  IC50: 0.23 µM
[5]; α1β3CryoEM, 10 mM tricine, n = 7
  pIC50 free Zn2+ inhibition: 6.64 ± 0.2
[5]; α1β3CryoEM, absence of tricine, n = 6
  pIC50 Zn2+ inhibition: 6.66 ± 0.11
αβγ receptors
  reduction of Zn2+ sensitivity: 200 fold

## NCc1cc(=O)[nH]o1 [muscimol]
α1β3
  probability of activation (PA): ~ 0.6

B1: α-Cobratoxin (protein)
chain: IRCFITPDITSKDCPNGHVCYTKTWCDAFCSIRGKRVDLGCAATCPTVKTGVDIQCCSTDNCNPFPTRKRP
α2-GABAAR subunit
  reduction of sensitivity to α-CBTx: fivefold
GABA-A receptors
  sensitivity of GABA-A receptors: sub-micromolar
